Experimental data taken from patent EP2698385A1, “Detection of synthetic cannabinoids” (priority 2012, dated 2014).

Columns and labels:
Type in all cases: binding, sheep
[1] = system: Antibody to Immunogen IV; conditions: Cross-reactants at 100 ng/ml; Antibody to Immunogen IV
[2] = system: Antibody to Immunogen VII; conditions: Cross-reactants at 100 ng/ml; Antibody to Immunogen VII
[3] = system: Antibody to Immunogen VIII; conditions: Cross-reactants at 100 ng/ml; Antibody to Immunogen VIII
[4] = system: Antibody to Immunogen I; conditions: Cross-reactants at 100 ng/ml; Antibody to Immunogen I
In short: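 Sheep anti-Immunogen I IgG coated on plates, then JWH-018 standards (0–40 ng/ml) competed with hapten-HRP conjugate for 1 h at 25°C. TMB read-out at 450 nm, 4-parameter fit. IC50 is the standard concentration giving 50% B/B0; cross-reactivity of related cannabinoids taken from the calibration curves.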

[5] = system: Antibody to Immunogen II; assay: Competitive ELISA (Example 36), antibody RS1833B12, tracer ESC4555/LK959, standard JWH-018; conditions: Cross-reactants at 100 ng/ml; Antibody to Immunogen II
Description: An aqueous solution of each immunogen was formulated with Freund's Complete Adjuvant (FCA) to form an emulsion consisting of 2mg/ml* immunogen in 50% (v/v) FCA. Three sheep were immunised with this emulsion (1° immunisation), 0.25ml being intramuscularly injected at each of four sites in the flank of each animal. Subsequent immunizations (boosts) contained 1mg/ml* immunogen. All boosts were emulsified in 50% (v/v) Freund's Incomplete Adjuvant (FIA) and were administered in the same manner as the 1° immunisation, at monthly intervals. Blood sampling took place 7 to 14 days after each boost. *The general procedure for immunogen administration is outlined above, however, it was necessary to deviate from this protocol in some cases, due to reduced immunogen concentrations (Immunogens II, IV, VII and VIII) and/or amount available (Immunogen VIII). Any deviations from the protocol described are outlined in Table 1A below and highlighted in bold. Table 1A: Amount and volume of immunogens administered for primary and subsequent boosts
The appropriate antibody coating dilution was determined using standard ELISA checkerboard techniques. The plate was incubated overnight at 4°C, washed 4 times over 10 minutes with Tris buffered saline containing Tween 20 (TBST) and tapped dry. […] 75µl of conjugate (appropriate hapten-HRP) diluted in Tris buffer (pH 7.2) containing EDTA, D-mannitol, sucrose, thimerosal and BSA, was added to each of the wells. The appropriate dilution of conjugate was also determined using standard ELISA checkerboard techniques. The plate was incubated at 25°C for 1 hour. Excess unbound conjugate was removed by washing 6 times over a 10 minute period with TBST. 125µl of tetramethylbenzidine (TMB) substrate solution was added to each well of the plate that was then incubated for 20 minutes in the dark at room temperature. The reaction was terminated by addition of 125µl 0.2M H2SO4 to each well. The absorbance was then measured at 450nm using a microtiter plate reader. The data are inputted to a computer program called 'KC Junior'. It is a 4 parameter fit curve and allow the calculatation of concentrations between the standard runs.
In a similar manner to that described above, the wells of a 96-well microtiter plate were coated with the IgG fraction of the antiserum raised to Immunogens I or II.
The data set our in Tables 3 and 4 are generated using antibodies raised against the indicated Immunogens in a competitive binding assay with the indicated tracers, using the indicated standards: Table 2
Using the calibration curves generated and employing a single level of cross reactants, these were used to determine the cross-reactivity of each immunoassay with these substances. These are the standards used for the IC50 and cross-reactivity data generation • Immunogen I - JWH-018 • Immunogen II - JWH-018 • Immunogen IV - JWH-018 • Immunogen VII - JWH-015 • Immunogen VIII - JWH-018 Table 4: Cross reactivity of the competitive ELISAs for synthetic cannabinoids and their metabolites

| SMILES | %B/B0 [1] [%] | %B/B0 [2] [%] | %B/B0 [3] [%] | %B/B0 [4] [%] | %B/B0 [5] [%] |
| --- | --- | --- | --- | --- | --- |
| CS(=O)(=O)O.Cc1c(C(=O)c2cccc3ccccc23)c2cccc3c2n1[C@H](CN1CCOCC1)CO3 [(+)WIN 55212-2 (mesylate), (+)WIN 55212-2] | 92.76 | 24.08 | 107.12 | 17.00 | 83.87 |
| O=C(c1cccc(I)c1)c1cn(CCCCCF)c2ccccc12 [AM-694 3-iodo isomer] | 37.20 | 89.49 | 12.71 | 31.37 | 48.58 |
| CCCCn1cc(C(=O)c2cccc3ccccc23)c2cccc(O)c21 [JWH-073 7-hydroxyindole metabolite] | 96.95 | 61.78 | 94.04 | 5.59 | 46.05 |
| CC(O)CCCn1cc(C(=O)c2cccc3ccccc23)c2ccccc21 (racemic) [(±)-JWH 018 N-(4-hydroxypentyl) metabolite] | 52.29 | 57.37 | 21.94 | 4.23 | 53.99 |
| CCCCCn1cc(C(=O)c2cccc3ccc(C)cc23)c2ccccc21 [JWH 122 7-methylnaphthyl isomer] | 13.48 | 92.44 | 38.48 | 36.46 | 38.28 |
| CCCCn1cc(C(=O)c2cccc3ccccc23)c2ccc(O)cc21 [JWH-073 6-hydroxyindole metabolite] | 74.89 | 61.83 | 93.52 | 5.93 | 28.03 |
| CN1CCCCC1Cn1cc(C(=O)c2cccc3ccccc23)c2ccccc21 (stereo not shown) [AM-1220] | 86.93 | 49.71 | 106.65 | 4.45 | 77.46 |
| O=C(c1cccc2ccccc12)c1cn(CCCC(O)CF)c2ccccc12 (stereo not shown) [AM-2201 N-(4-hydroxypentyl) metabolite] | 43.62 | 52.75 | 36.41 | 3.80 | 46.55 |
| C=CCCCn1cc(C(=O)c2cccc3ccccc23)c2ccccc21 [JWH-022] | 10.61 | 58.44 | 28.94 | 4.51 | 11.72 |
| CC(C)(C)Cn1cc(C(=O)c2cccc3ccccc23)c2ccccc21 [JWH-018 N-(2,2-dimethylpropyl) isomer] | 80.42 | 52.46 | 95.09 | 3.89 | 60.15 |
| O=C(c1cccc2ccccc12)c1cn(CCCCO)c2ccccc12 [JWH-073 N-(4-hydroxybutyl) metabolite] | 52.61 | 48.81 | 57.99 | 3.22 | 60.01 |
| CN1CCCCC1Cn1cc(C(=O)c2ccccc2I)c2ccccc21 (stereo not shown) [AM-2233] | 92.10 | 72.46 | 91.25 | 16.97 | 86.43 |
| CCCCCCCn1cc(C(=O)c2cccc3ccccc23)c2ccccc21 [JWH-020] | 73.73 | 81.30 | 100.73 | 16.03 | 35.75 |
| CCCCn1cc(C(=O)c2cccc3ccccc23)c2c(O)cccc21 [JWH-073 4-hydroxyindole metabolite] | 28.69 | 82.82 | 26.23 | 39.50 | 40.14 |
| CCCCCn1cc(C(=O)c2c(C)ccc3ccccc23)c2ccccc21 [JWH 122 2-methylnaphthyl isomer] | 26.13 | 85.37 | 61.74 | 33.35 | 27.14 |
| CC(C)CCn1cc(C(=O)c2cccc3ccccc23)c2ccccc21 [JWH 018 N-(3-methylbutyl) isomer (JWH-073 3-methylbutyl homologue), JWH 018 N-(3-methylbutyl) isomer] | 12.75 | 48.81 | 53.29 | 3.16 | 30.38 |
| CC(F)CCCn1cc(C(=O)c2cccc3ccccc23)c2ccccc21 (single isomer, unassigned) [AM-2201 N-(4-fluoropentyl) isomer] | 5.72 | 52.70 | 15.00 | 3.45 | 14.60 |
| CCCCCn1cc(C(=O)c2cccc3ccccc23)c2ccc(OC)cc21 [JWH-018 6-methoxyindole analogue] | 90.65 | 72.33 | 77.22 | 10.55 | 20.44 |
| CC(C)C(C)n1cc(C(=O)c2cccc3ccccc23)c2ccccc21 (single isomer, unassigned) [JWH 018 N-(1,2-dimethylpropyl) isomer] | 87.11 | 62.29 | 67.71 | 6.60 | 71.33 |
| O=C(c1cccc2ccccc12)c1cn(CCN2CCOCC2)c2ccc(O)cc12 [JWH-200 5-hydroxyindole metabolite] | 97.53 | 82.42 | 90.88 | 12.61 | 64.99 |
| CCCCCCn1cc(C(=O)c2cccc3ccccc23)c2cc(O)ccc21 [JWH 019 5-hydroxyindole metabolite] | 93.84 | 87.58 | 101.57 | 19.81 | 17.34 |
| O=C(O)CCCn1cc(C(=O)c2cccc3ccccc23)c2ccccc21 [JWH-073 N-butanoic acid metabolite] | 98.95 | 60.01 | 94.98 | 6.88 | 92.20 |
| O=C(c1cccc2ccccc12)c1cn(CCCCCF)c2ccccc12 [AM-2201] | 6.20 | 55.28 | 16.74 | 3.72 | 11.72 |
